Measured values: patent US12358859B2, “Series of compounds for treatment of skin diseases and other conditions” (Unigen, Inc., priority 2018, dated 2025)

How the values were obtained:
[1] = target: T1, COX-2 (Homo sapiens, UniProt P35354); experiment: COX-2 enzymatic inhibition assay; type: biochemical; settings: for IC50: read-out: Anti-inflammatory (IC50) COX-2
T1 construct: purchased Cayman Chemical 701050
T1 sequence (P35354 18-604): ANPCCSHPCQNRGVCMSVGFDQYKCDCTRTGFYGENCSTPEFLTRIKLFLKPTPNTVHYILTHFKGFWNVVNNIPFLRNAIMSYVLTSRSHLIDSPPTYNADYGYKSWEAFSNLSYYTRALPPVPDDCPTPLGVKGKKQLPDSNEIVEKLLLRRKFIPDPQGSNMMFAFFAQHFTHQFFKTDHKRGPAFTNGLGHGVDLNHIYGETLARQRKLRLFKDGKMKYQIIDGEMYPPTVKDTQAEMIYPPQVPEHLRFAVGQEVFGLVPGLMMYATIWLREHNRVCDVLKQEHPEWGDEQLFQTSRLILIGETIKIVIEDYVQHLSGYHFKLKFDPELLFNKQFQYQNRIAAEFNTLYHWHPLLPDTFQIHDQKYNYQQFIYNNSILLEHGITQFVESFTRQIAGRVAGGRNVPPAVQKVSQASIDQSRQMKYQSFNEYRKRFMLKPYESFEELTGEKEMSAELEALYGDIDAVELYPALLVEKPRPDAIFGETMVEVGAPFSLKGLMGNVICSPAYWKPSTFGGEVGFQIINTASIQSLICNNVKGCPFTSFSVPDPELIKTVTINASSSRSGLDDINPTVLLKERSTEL
Experimental: In order to screen for compounds that inhibited COX-1 and Cox-2 activity, enzymatic inhibition assay kits were purchased from Cayman Chemical (cat #701050). Briefly, the compound being examined was treated against a fixed amount of COX-1 and COX-2 enzymes. A cleavable, peroxide chromophore was included in the assay to visualize the peroxidase activity of each enzyme in presence of arachidonic acid as […]. Typically, assays were performed in 96-well format. Each inhibitor, taken from a 1 M stock solution in 100% DMSO, was tested in duplicate at room temperature using the following range of concentrations: 1.9, 3.9, 7.8, 15.6, 31.2, 62.5, 125, 250, 500, and 1000 μM. To each well, 150 μL of Assay Buffer was added along with 10 μL of Hemin, 10 μL of inhibitor diluted in DMSO and 10 μL of either COX-1 or COX-2 enzyme. The compounds were incubated for 5 minutes at room temperature, followed by the addition of 20 μL of Colormietric Substrate solution and 20 μL of arachidonic acid solution to initiate the reaction. The plate was mixed and incubated for 2 minutes before reading the absorbance at 590 nm. The inhibitor concentration vs. % of inhibition was plotted and the IC50 determined.

[2] = target: 5-lipoxygenase from potato; experiment: Lipoxygenase Inhibition Assay; type: biochemical; settings: read-out: Anti-inflammatory (IC50) 5-LOX
Experimental: One of the most important pathway involved in the inflammatory response is produced by non-heme, ion-containing lipoxygenases (5-LOX, 12-LOX and 15-LOX) which catalyze the oxidation of fatty acids such as AA to produce the hydoperoxides 5-, 12- and 15-HEPTE, which are then converted to leukotrienes. A Lipoxygenase Inhibition Assay was carried out using commercial kit from Cayman Chemical (cat #760700, 5-lipoxygenase from potato, cat #60400). The test article and positive control were dissolved in 1% DMSO. 90 μL of diluted potato lipoxygenase enzyme and 10 μL inhibitor were added to a flat-bottom clear 96-well microplate. The plate was pre-incubated for five minutes at room temperature. The reaction was initiated by the addition of 10 μL linoleic acid substrate. The plate was then placed on a shaker for 10 minutes at room temperature. 100 μL Chromogen solution was added to each well and the plate was shaken again for five minutes. The absorbance was read at 492 nm using a TECAN Genios plate reader. The inhibitor concentration vs. % of inhibition was plotted and the IC50 determined.

[3] = tested on: murine melanoma cells B16-F1; experiment: Cell viability, tetrazolium reduction assay; type: cell-based
Experimental: All test compounds were initially dissolved in 100% DMSO at a concentration of 400 mM. Then, 6 μL of 400 mM test compounds were added to 1.2 mL of the cell growth media giving a final concentration of 2 mM for the test compound and concentration of 0.5% for DMSO. The compounds were centrifuged for 1 h at 20,000×g. Supernatants (1 mL) were collected and filtered through sterile 0.2 μm filters. The compounds were serially diluted in two-fold increments in the sterile cell growth media supplemented with 0.5% DMSO, thus keeping the concentration of DMSO constant for all samples. These serially diluted compounds were subsequently used as two-fold concentrated stock solutions in the melanin production and cell viability assays. Equal volumes of 2× compounds were mixed with media containing 2 nM α-MSH to give a final concentration of 1 nM α-MSH, 0.5% DMSO, and 1× concentration of test compounds.
Viability of cells was measured using standard tetrazolium reduction assay based on redox potential of live cells. Cells were seeded in a clear-bottom 96-well plate in RPMI 1640 media with Glutamax (Fisher Scientific, cat #61870036) at a density of 5,000 cells/well. Cells were treated with test compounds dissolved in 100 μL RPMI 1640 media and incubated for 48 hours at 37° C. in a humidified atmosphere of 95% air and 5% CO2.
After incubation, 20 μL of Aqueous One Solution were added to each well and the plate was returned to the incubator for 30 minutes. Conversion of tetrazolium was monitored by measuring absorbance of cell wells at 492 nm using a TECAN Genios plate reader.
More than 90% percent of the melanin produced by cultured melanoma cells is found in extra-cellular media. Therefore, at the end of the experiment melanin-containing media was collected and relative amounts of melanin were determined by absorption at 492 nm. Viability of cells was determined by a commonly used colorimetric procedure that is based on conversion of the tetrazolium compounds to colored formazan products (using Promega's CellTiter96 AqueousOne assay). Dehydrogenase enzymes in metabolically active cells accomplish this conversion, and the amount of formazan product is directly proportional to the number of living cells in culture. Mean (n=2) absorption of wells containing no cells was subtracted as blanks. The results were computed as percent of wells that contained the cells but no test compounds.

Compound | Anti-inflammatory (IC50) COX-2 [1] | IC50 [2] [µM] | CELL VIABILITY ([3]; 48 hours, Tables 1-3) [µM] | LD50, cell viability ([3]; mouse, 48 h) [µM] | IC50 [1] [µM] | CELL VIABILITY ([3]; mouse, 48 h) [µM]
CC(C)=CCCC(C)=Cc1ccc(O)cc1 (mixture of isomers) [Compound 1, (E/Z)-4-(2,6-dimethylhepta-1,5-dienyl)phenol] | Not active | 90 | 269 | 269 |  | 
CC(C)=CCC/C(C)=C/c1cc(O)cc(O)c1 [Compound 4, (E/Z)-5-(2,6-dimethylhepta-1,5-dienyl)benzene-1,3-diol] |  | 317 |  |  | 245 | 127
CC(C)=CCCC(C)/C=C/c1ccc(O)cc1 (stereo not drawn) [Compound 5, (E)-4-(3,7-dimethylocta-1,6-dienyl)phenol] |  | 50 |  |  | 72 | 50
CC(C)=CCCC(C)/C=C/c1ccc(O)cc1O (stereo not drawn) [Compound 6, (E)-4-(3,7-dimethylocta-1,6-dienyl) benzene-1,3-diol] |  | 307 | 233 | 233 | 164 | 
CC(C)=CCCC(C)/C=C/c1cc(O)cc(O)c1 (stereo not drawn) [Compound 7, (E)-5-(3,7-dimethylocta-1,6-dienyl) benzene-1,3-diol] |  | 143 | 152 | 152 | 135 | 
CC(C)=CCCC(C)C/C=C\c1cc(O)cc(O)c1 (stereo not drawn) [Compound 15, (Z)-5-(4,8-dimethylnona-1,7-dienyl) benzene-1,3-diol] | No Inhibition | 90 |  |  |  | 269
